The results in this text go back to ChEMBL document CHEMBL1143757, “Synthesis and inhibitory activity of new benzimidazole derivatives against Burkitt's lymphoma promotion” (2007).

Assay [1] deals with Human gammaherpesvirus 4. The assay is described as follows: Inhibition of TPA-induced Epstein-Barr virus early antigen activation in Raji cells at 16 nmol relative to control; values are per cent of control.
The test system of assay [2] is Human gammaherpesvirus 4. Put plainly: Inhibition of TPA-induced Epstein-Barr virus early antigen activation in Raji cells at 3.2 nmol relative to control; values are per cent of control.
The subject of another assay is Raji. The assay is described as follows: Cytotoxicity against Raji cells assessed as cell viability at 32 nmol relative to control. The class given is functional, Homo sapiens.
Assay [3] concerns Human gammaherpesvirus 4. Put plainly: Inhibition of TPA-induced Epstein-Barr virus early antigen activation in Raji cells at 32 nmol relative to control; values are per cent of control.
Assay [4] deals with Human gammaherpesvirus 4. Put plainly: Inhibition of TPA-induced Epstein-Barr virus early antigen activation in Raji cells at 0.32 nmol relative to control; values are per cent of control.

On to `Cc1nc2cc(/N=C3/SCC(=O)N3C(=O)c3ccccc3)ccc2n1Cc1ccccc1`, for which the “level, % of control” value stood at 52.5% with Human gammaherpesvirus 4 [1], 82.5% in the assay with Human gammaherpesvirus 4 [2], 12.3% with Human gammaherpesvirus 4 [3] and 100% in the assay with Human gammaherpesvirus 4 [4]. Moreover, the Activity in the assay with Raji came out at 60%.

As to `Cc1nc2cc(/N=C\c3ccc(C)o3)ccc2[nH]1`, the “level, % of control” value with Human gammaherpesvirus 4 [1] is given as 62%; in the assay with Human gammaherpesvirus 4 [2] it was 86.2%; in the assay on Human gammaherpesvirus 4 [3] it was 18%; in the assay on Human gammaherpesvirus 4 [4], 100%. Moreover, the Activity in the assay with Raji was 60%.

For `Cc1nc2cc(NC(=S)NC(=O)c3ccccc3)ccc2n1Cc1ccccc1`, the “level, % of control” value in the assay with Human gammaherpesvirus 4 [1] is on record as 60.6%; in the assay on Human gammaherpesvirus 4 [2] it was 82%; with Human gammaherpesvirus 4 [3], 17.8%; in the assay on Human gammaherpesvirus 4 [4] it was 100%. For the same compound, in the assay with Raji, the Activity came to 60%.

On to `Cc1nc2cc(/N=C3/SCC(=O)N3C)ccc2n1Cc1ccccc1`, for which the “level, % of control” value amounted to 61.2% in the assay on Human gammaherpesvirus 4 [1], 83.4% in the assay with Human gammaherpesvirus 4 [2], 20.7% in the assay on Human gammaherpesvirus 4 [3] and 100% in the assay with Human gammaherpesvirus 4 [4]. The Activity with Raji is listed as 60%.

Regarding `Cc1nc2cc([N+](=O)[O-])ccc2n1Cc1ccccc1`, the “level, % of control” value with Human gammaherpesvirus 4 [1] was found to be 62.4%; with Human gammaherpesvirus 4 [2], 87.4%; in the assay with Human gammaherpesvirus 4 [3], 18.3%; in the assay on Human gammaherpesvirus 4 [4], 100%. In addition, the Activity with Raji was 60%.

As for `Cc1nc2cc(N3C(=O)CSC3c3cccs3)ccc2[nH]1` (stereo not given), the “level, % of control” value in the assay on Human gammaherpesvirus 4 [1] is listed as 66.5%; in the assay on Human gammaherpesvirus 4 [2], 88.9%; in the assay with Human gammaherpesvirus 4 [3] it was 22.1%; in the assay on Human gammaherpesvirus 4 [4] it was 100%. Moreover, the Activity in the assay on Raji worked out at 60%.

As to `Cc1nc2cc(N3C(=O)CSC3c3ccc4c(c3)OCO4)ccc2[nH]1` (stereo not given), the “level, % of control” value in the assay on Human gammaherpesvirus 4 [1] is 65%; in the assay on Human gammaherpesvirus 4 [2], 88.4%; with Human gammaherpesvirus 4 [3] it was 21.6%; in the assay with Human gammaherpesvirus 4 [4] it was 100%. In addition, in the assay with Raji, the Activity was determined as 60%.

Regarding `Cc1nc2cc([N+](=O)[O-])ccc2[nH]1`, the “level, % of control” value in the assay with Human gammaherpesvirus 4 [1] is given as 62.5%; with Human gammaherpesvirus 4 [2] it was 88%; in the assay on Human gammaherpesvirus 4 [3], 18.4%; with Human gammaherpesvirus 4 [4] it was 100%. Besides, the Activity in the assay on Raji amounted to 60%.

As to `Cc1ccc(/C=N\c2ccc3[nH]c(C)nc3c2)cc1`, the “level, % of control” value in the assay on Human gammaherpesvirus 4 [1] was found to be 64.5%; in the assay with Human gammaherpesvirus 4 [2] it was 89.1%; in the assay on Human gammaherpesvirus 4 [3] it was 19.3%; in the assay with Human gammaherpesvirus 4 [4], 100%. Also, the Activity in the assay on Raji amounted to 60%.

In the case of `Cc1nc2cc(/N=C3/SCC(=O)N3c3ccccc3)ccc2n1Cc1ccccc1`, the “level, % of control” value in the assay on Human gammaherpesvirus 4 [1] worked out at 61%; with Human gammaherpesvirus 4 [2], 82.5%; in the assay with Human gammaherpesvirus 4 [3] it was 19.4%; with Human gammaherpesvirus 4 [4] it was 100%. Moreover, in the assay on Raji, the Activity was determined as 60%.

As to `COc1ccc(N2C(=O)CS/C2=N/c2ccc3c(c2)nc(C)n3Cc2ccccc2)cc1`, the “level, % of control” value in the assay on Human gammaherpesvirus 4 [1] worked out at 53%; in the assay with Human gammaherpesvirus 4 [2], 78%; in the assay with Human gammaherpesvirus 4 [3] it was 13.2%; in the assay with Human gammaherpesvirus 4 [4], 100%. In the assay on Raji, the Activity turned out to be 60%.

For `Cc1nc2cc(N)ccc2[nH]1.Cl`, the “level, % of control” value stood at 64.3% with Human gammaherpesvirus 4 [1], 88.9% with Human gammaherpesvirus 4 [2], 20.3% in the assay with Human gammaherpesvirus 4 [3] and 100% in the assay on Human gammaherpesvirus 4 [4]. The Activity in the assay with Raji was 60%.

For the compound `CNC(=S)Nc1ccc2c(c1)nc(C)n2Cc1ccccc1`, the “level, % of control” value in the assay with Human gammaherpesvirus 4 [1] is recorded as 58.1%; in the assay on Human gammaherpesvirus 4 [2] it was 80%; with Human gammaherpesvirus 4 [3] it was 13.2%; in the assay with Human gammaherpesvirus 4 [4], 100%. In the assay on Raji, the Activity turned out to be 60%.

As to `Cc1nc2cc(N)ccc2n1Cc1ccccc1.Cl`, the “level, % of control” value amounted to 62.2% in the assay on Human gammaherpesvirus 4 [1], 86.3% with Human gammaherpesvirus 4 [2], 18.5% in the assay on Human gammaherpesvirus 4 [3] and 100% in the assay on Human gammaherpesvirus 4 [4]. The Activity in the assay on Raji is 60%.

With `Cc1ccc(C2SCC(=O)N2c2ccc3[nH]c(C)nc3c2)cc1` (stereo not given), the “level, % of control” value in the assay with Human gammaherpesvirus 4 [1] is 66.1%; in the assay on Human gammaherpesvirus 4 [2] it was 88.9%; with Human gammaherpesvirus 4 [3], 23.1%; with Human gammaherpesvirus 4 [4], 100%. Also, in the assay with Raji, the Activity is recorded as 60%.

On to `Cc1nc2cc(NC(=S)Nc3ccccc3)ccc2n1Cc1ccccc1`, for which the “level, % of control” value is reported as 60.2% in the assay on Human gammaherpesvirus 4 [1], 83.1% in the assay on Human gammaherpesvirus 4 [2], 15.3% with Human gammaherpesvirus 4 [3] and 100% with Human gammaherpesvirus 4 [4]. In addition, the Activity in the assay with Raji was determined as 60%.

In the case of `COc1ccc(NC(=S)Nc2ccc3c(c2)nc(C)n3Cc2ccccc2)cc1`, the “level, % of control” value in the assay with Human gammaherpesvirus 4 [1] is 53.1%; with Human gammaherpesvirus 4 [2], 78.3%; in the assay with Human gammaherpesvirus 4 [3] it was 13.5%; with Human gammaherpesvirus 4 [4], 100%. For the same compound, in the assay with Raji, the Activity stood at 60%.

On to `Cc1nc2cc(N3C(=O)CSC3c3ccc(C)o3)ccc2[nH]1` (stereo not given), for which the “level, % of control” value was 65.1% in the assay with Human gammaherpesvirus 4 [1], 87.7% in the assay on Human gammaherpesvirus 4 [2], 20.9% in the assay with Human gammaherpesvirus 4 [3] and 100% in the assay on Human gammaherpesvirus 4 [4]. Also, the Activity in the assay with Raji is recorded as 60%.

For the compound `Cc1nc2cc(N3C(=O)CSC3c3c[nH]c4ccccc34)ccc2[nH]1` (stereo not given), the “level, % of control” value worked out at 65.9% in the assay with Human gammaherpesvirus 4 [1], 87.1% in the assay with Human gammaherpesvirus 4 [2], 21.8% with Human gammaherpesvirus 4 [3] and 100% in the assay on Human gammaherpesvirus 4 [4]. In addition, the Activity in the assay with Raji is 60%.

As for `Cc1nc2ccccc2[nH]1`, the “level, % of control” value in the assay with Human gammaherpesvirus 4 [1] amounted to 63.6%; in the assay on Human gammaherpesvirus 4 [2], 88.3%; with Human gammaherpesvirus 4 [3], 19.6%; with Human gammaherpesvirus 4 [4], 100%. For the same compound, in the assay on Raji, the Activity came to 60%.

On to `Cc1nc2cc(/N=C\c3cccs3)ccc2[nH]1`, for which the “level, % of control” value in the assay with Human gammaherpesvirus 4 [1] was 65.5%; in the assay with Human gammaherpesvirus 4 [2] it was 89.1%; in the assay on Human gammaherpesvirus 4 [3], 22%; with Human gammaherpesvirus 4 [4], 100%. Also, the Activity in the assay on Raji came out at 60%.

Turning to `CCNC(=S)Nc1ccc2c(c1)nc(C)n2Cc1ccccc1`, the “level, % of control” value was 59.6% in the assay with Human gammaherpesvirus 4 [1], 81.2% in the assay on Human gammaherpesvirus 4 [2], 14% in the assay with Human gammaherpesvirus 4 [3] and 100% in the assay on Human gammaherpesvirus 4 [4]. Further, in the assay with Raji, the Activity came out at 60%.

Consider `CCN1C(=O)CS/C1=N/c1ccc2c(c1)nc(C)n2Cc1ccccc1`, for which the “level, % of control” value with Human gammaherpesvirus 4 [1] was 54.2%; in the assay with Human gammaherpesvirus 4 [2], 81.1%; in the assay with Human gammaherpesvirus 4 [3] it was 18.3%; in the assay with Human gammaherpesvirus 4 [4], 100%. In addition, in the assay with Raji, the Activity was determined as 60%.

As to `Cc1nc2cc(/N=C\c3cccc4ccccc34)ccc2[nH]1`, the “level, % of control” value in the assay on Human gammaherpesvirus 4 [1] is recorded as 65.8%; in the assay with Human gammaherpesvirus 4 [2], 89.6%; in the assay on Human gammaherpesvirus 4 [3] it was 20.6%; in the assay on Human gammaherpesvirus 4 [4], 100%. Besides, the Activity in the assay with Raji amounted to 60%.

Take `Cc1nc2cc(/N=C\c3ccc4c(c3)OCO4)ccc2[nH]1`: the “level, % of control” value with Human gammaherpesvirus 4 [1] came out at 60.2%; in the assay with Human gammaherpesvirus 4 [2], 85.4%; with Human gammaherpesvirus 4 [3] it was 15.1%; in the assay with Human gammaherpesvirus 4 [4], 100%. Further, the Activity in the assay on Raji came to 60%.

As to `Cc1nc2cc(N3C(=O)CSC3c3cccc4ccccc34)ccc2[nH]1` (stereo not given), the “level, % of control” value in the assay on Human gammaherpesvirus 4 [1] turned out to be 61%; in the assay on Human gammaherpesvirus 4 [2], 85.1%; with Human gammaherpesvirus 4 [3] it was 17.1%; with Human gammaherpesvirus 4 [4], 100%. Besides, the Activity in the assay with Raji is recorded as 60%.

On to `Cc1nc2cc(/N=C\c3c[nH]c4ccccc34)ccc2[nH]1`, for which the “level, % of control” value in the assay with Human gammaherpesvirus 4 [1] worked out at 62.1%; in the assay on Human gammaherpesvirus 4 [2], 86.1%; with Human gammaherpesvirus 4 [3], 18.4%; in the assay on Human gammaherpesvirus 4 [4] it was 100%. Besides, the Activity in the assay on Raji was 60%.
